Measured values from patent publication US20140335050A1, “METHODS, COMPOSITIONS, AND KITS FOR THE TREATMENT OF CANCER” (The General Hospital Corporation, priority 2011, published 2014).

Legend:
Format in all cases: cell-based, human
[1] = tested on: MU89 MART::EGFP cell line; assay: Melan-A/MART-1 promoter-driven EGFP reporter, kinetics by flow cytometry; conditions: MU89 MART::EGFP (FIG. 11)
Procedure: FIG. 11 is a set of four graphs showing the kinetics of Melan-A/MART-1 increase. […] The same number of cells per well were plated in each well of a 24 well plate and drug was added on day zero. Each day cells were collected and assayed for that time point. Control untreated cells are shown for comparison. The data are from one representative experiment.
A kinetic analysis was performed to determine the effect of Hsp90 inhibition on Melan-A/MART-1 promoter activity over time. […] Reporter activity increases steadily for the first 72 hours of Hsp90 inhibition, and then plateaus. The need for continued presence of Hsp90 inhibitors in order for them to be effective (i.e. whether the drug can be removed after short exposure, or whether it must it be continually present) was assessed. […] To achieve full signal enhancement, it is desirable to retain the drug for at least 48 hours, after which the effect remains constant or slightly decreases.
The generation and application of EGFP reporter cells has been previously described. Briefly, a 1200 base pair human genomic DNA segment encompassing the Melan-A/MART-1 promoter was used to generate a construct driving expression of the EGFP reporter gene. Stable transfectants with this construct were generated in the low-antigen cell line A375 and the high-antigen line MM96L+ and MU89. The EGFP expression response patterns of these cells to IFN-beta and MAP kinase inhibitors recapitulates the antigen up-regulation of endogenous Melan-A/MART-1 induced by these agents.
Intracellular staining and flow cytometric analyses of cytoplasmic Melan-A/MART-1, and gp100 expression were performed as described previously. Cells were fixed with 1% formaldehyde, permeabilized with 0.1% saponin, stained with monoclonal antibodies to melanocyte antigens. Antibodies were obtained with specificity for: Melan-A/MART-1 from Vector Labs (Burlingame, Calif.); gp100/HMB45 from DakoCytomation (Carpinteria, Calif.) and then visualized with goat anti-mouse FITC-conjugated secondary antibody from Invitrogen (Frederick, Md.). The level of EGFP was determined by flow cytometry of unfixed cells washed and resuspended in 1×PBS. Surface staining of MHC Class I was carried out using the antibody W6/32 on cells harvested with Cell Stripper from MediaTech Inc. (Manassas, Va.) and carried out on ice.

MU89 melanoma cells = assay: Tumor cell/T cell co-culture IL-2 ELISA (Melan-A/MART-1 specific TCR Jurkat line J-TCR-M1 as responder); conditions: for Fold increase (IL-2 relative to untreated controls), hits from pilot screen: about 10 μM, 72 hours treatment, then 24 hours co-culture
Excerpt: The assay relies on the use of an antigen-specific responder T cell line. […] The chosen TCR reacts specifically to a Melan-A/MART-1 decapeptide (26[…]35) presented by HLA-A2, with appropriate triggering of T cell activation. We then used a lentiviral vector system for transduction of this specific TCR into the J.RT3-T3.5 T cell line, a Jurkat cell derivative which fails to express endogenous surface TCR through a mutation in its beta chain.
We evaluated several candidate melanoma cell lines for the ability to stimulate the J-TCR-M1 cell line. Levels of Melan-A/MART-1 (determined by intracellular staining and flow cytometry) and corresponding levels of induced IL-2 (determined by coculture with J-TCR-M1 and IL-2 ELISA) were tested for different melanoma cell lines.
The 480 compounds were tested in six parallel 96 well plates. The first two columns (16 wells) of each plate were used for standards (8 wells), untreated controls (4 wells), and positive controls (4 wells). The other ten columns (80 wells) were used for testing compounds in separate wells. A100 μl aliquot containing 5×10^4 MU89 cells was added to wells that contained 0.1 μl of each test drug diluted in 50 μl of RPMI media. The plates were incubated with drug for 72 hours at 37° C. in a humidified incubator with 5% CO2. After 72 hours, each well received 2.5×10^4J-TCR-M1 cells in 50 μl medium, and then incubated a further 24 hours. At the conclusion of the 24 hour co-culture period, each plate was centrifuged to pellet the cells and 100 μl supernatant fluid was collected from each well and plated in a parallel 96 well flat bottom well for IL-2 ELISA assay.
Melanoma cells were treated with hits from the primary screen for three days prior to counting and plating for the coculture assay (cells were washed and resuspended in fresh medium that no longer contained the treatment agents during the co-culture). A100 μl volume of 5×10^5 cells/ml tumor cells were mixed with 50 μl of […] T cells in a 96-well V-bottom plate and incubated overnight (16-24 hours). Plates were centrifuged to pellet the cells and 100 μl of supernatant fluid was removed from each well for cytokine assay. To assess antigen-specific T cell responses, a final concentration of 3.33 μg/ml Melan-A/MART-1 peptide (26[…]35 (A27L from wild type)) was added to the co-culture.
The protocol for evaluation of the cytokine IL-2 was performed using a the BD OptEAI kit, human IL-2 ELISA set from BD Biosciences (San Diego, Calif.) following the manufacturer's recommendations. The absorbance 450 nm was read in a BioRad 3550 plate reader. A standard curve using known concentrations of IL-2 (from 500 to 8 pg/ml) was included in each ELISA plate. IL-2 levels for experimental samples (pg/ml) were calculated from the standard curve.
100 μl of 5×10^5 tumor cells/ml were mixed with 50 μl of T cells (at 5×10^5 cells/ml) in a 96-well V-bottom plate and incubated overnight (16-24 hours). Plates were centrifuged to pellet the cells and 120 μl of supernatant fluid was removed from each well for cytokine assay. To assess antigen-specific T cell responses, 3.33 μg/ml Melan-A/MART-1 peptide was added to the co-culture.
The protocols for evaluation of either IL-2 or IFN-gamma were similar, following the manufacturer's recommendations. A standard curve using known concentrations of each cytokine was included in each ELISA experiment. ELISA plates were coated with capture antibody and then washed with 1×PBS 0.5% Tween-20. Wells were blocked with 1×PBS 1% FBS for 1 hour and rewashed.

melanomas and gliomas = assay: Intracellular staining for Melan-A/MART-1 and gp100, melanomas and gliomas exposed to hits (Table 10); conditions: in most cell lines; three days (Table 10)
Procedure: FIG. 7 is a series of graphs showing intracellular staining and flow histograms used to generate data for Table 10. All cells were stained with an antibody to gp100. Thin line represents untreated cells, bold line represents cells treated for three days with 17-AAG (1 μg/ml). Numbers represent geometric mean of flow histograms.
A further orthogonal secondary screen is the measurement of Melan-A/MART-1 and gp100 in additional melanoma cell lines and gliomas in response to the primary hit candidates. […] If the compounds of interest increase antigen levels in multiple melanoma cell lines and two gliomas, the effects of the compounds are clearly not limited to a single melanoma cell type.
As for the primary screen, 17-AAG and aphidicolin, had the largest impact on EGFP stimulation, inducing 3-fold and 5-fold increases respectively. Four additional compounds: damnacanthal, flunarizine, OBAA, and dantrolene stimulated EGFP more than 2-fold. We then tested the ability of the hit compounds to induce antigen increases in a more diverse set of tumors including melanomas and gliomas. […]
(§1) Cells were fixed with 1% formaldehyde, permeabilized with 0.1% saponin, stained with monoclonal antibodies to melanocyte antigens. […] The level of EGFP was determined by flow cytometry of unfixed cells that were washed and resuspended in 1×PBS.

[2] = tested on: Melan-A/MART-1 promoter EGFP reporter cell line; assay: Melan-A/MART-1 promoter-driven EGFP reporter cell line, secondary screen of hits (FIG. 6); conditions: over a dose range (FIG. 6)
Excerpt: FIG. 6 is a series of graphs showing EGFP detection of in cells treated with the indicated hits showing ability to upregulate a cell line containing a Melan-A/MART-1 promoter-driven EGFP reporter. Note that the x-axes (drug concentrations) and y-axes (EGFP fluorescent measurement) cover different ranges to best indicate the activities of individual compounds. Data from a single determination, representative of at least three confirmatory experiments, is shown.
The EGFP reporter driven by the Melan-A/MART-1 promoter represents one such orthogonal assay because it evaluates directly the effect of the compounds on Melan-A/MART-1 promoter activity independent of Melan-A/MART-1 protein expression. Compounds passing the other secondary screens, but failing this one, may affect antigen presentation by other mechanisms such as increasing the efficiency of antigen processing, enhancing MHC Class I levels, or by stabilizing the antigen/MHC complex.
As for the primary screen, 17-AAG and aphidicolin, had the largest impact on EGFP stimulation, inducing 3-fold and 5-fold increases respectively. […]
as §1

J-TCR-M1 T cells = assay: Secondary screen for nonspecific T cell activation (T cells alone, IL-2); conditions: 2.5×10^4 T cells alone, no tumor; PMA 2 μg/ml
Procedure: FIG. 4 is a graph showing IL-2 expression from the secondary screen for nonspecific T cell activation. Bars indicate the incubation of 2.5×10^4 T cells alone with the indicated compounds. The concentration of compounds used in this assay are; 17-AAG 10 μg/ml, OBAA 25 μg/ml, aphidicolin 4 μg/ml, flunarizine 8 μg/ml, dantrolene 2 μg/ml, glyburide 4 μg/ml, and PMA 2 μg/ml.
Secondary screens were carried out on the 8 primary hits, to further test performance robustness, specificity, and certain functional properties. Initially, for any previously-described compound, extensive literature searches must be performed to look for all relevant known bioactivities, especially towards melanocytic cells or T cells. […] Testing for non-specific T cell stimulation will identify false positives, and compounds failing this test will not be further evaluated in any other secondary screens. […]
The protocol for evaluation of the cytokine IL-2 was performed using a the BD OptEAI kit, human IL-2 ELISA set from BD Biosciences (San Diego, Calif.) following the manufacturer's recommendations. The absorbance 450 nm was read in a BioRad 3550 plate reader. […] IL-2 levels for experimental samples (pg/ml) were calculated from the standard curve.

SMILES | Time at which the fluorescent reporter signal is significantly enhanced (as early as) [1] | Outcome in the primary co-culture IL-2 screen (hit or not) (MU89 melanoma cells; ICCB Known Bioactives Library, 10 μM) | Fold increase (IL-2 relative to untreated controls), hits from pilot screen (MU89 melanoma cells) | IL-2 stimulation in repeat of the tumor T cell co-culture IL-2 ELISA (MU89 melanoma cells; hits re-tested over a wider dose range (FIG. 5)) | Protein increase (Melan-A/MART-1, gp100 intracellular staining) (melanomas and gliomas) | EGFP stimulation (Melan-A/MART-1 promoter reporter) [2] | IL-2 expression of T cells incubated alone with compound (nonspecific T cell activation) (J-TCR-M1 T cells)
C=CCNC1=C2C[C@@H](C)C[C@H](OC)[C@H](O)[C@@H](C)/C=C(\C)[C@H](OC(N)=O)[C@@H](OC)/C=C\C=C(/C)C(=O)NC(=CC1=O)C2=O [17-AAG, 17-allylaminogeldanamycin] | 2 days | identified as a hit | 7.7 fold | about 7 fold | inducing high levels of protein increases at low concentrations | 3 fold | 
CCCCCCCCCCCCCC(=O)O[C@@H]1[C@@H](C)[C@@]2(O)[C@@H](C=C(CO)C[C@]3(O)C(=O)C(C)=C[C@@H]23)[C@@H]2C(C)(C)[C@]12OC(C)=O [PMA, phorbol-12-myristate-13 acetate] |  |  | 1.9 fold |  |  |  | caused T cells stimulation in the absence of tumor
